Here are results for three compounds from US20230172951A1, “METHODS OF USING BILE ACIDS TO TREAT VIRAL INFECTIONS” (HOFFMAN TECHNOLOGIES LLC, priority 2020, published 2023).

Data set [1] deals with SARS-CoV-2 (USA-WA1/2020 strain). Description: SARS-CoV-2 neutralization assay in Vero E6 cells, cytopathic effect (CPE) read-out. It counts as cell-based. Conditions: for Inhibition of SARS-CoV-2 infection of Vero cells / Day 2 CPE / Day 4 CPE: 1.25 mg/mL; for Inhibition of SARS-CoV-2 infection of Vero cells: dosed simultaneously with viral addition to cells; for EC50 (inhibition of SARS-CoV-2 CPE): Vero E6 cells, calculated by the Quest Graph EC50 Calculator (AAT Bioquest); for Day 2 CPE / Day 4 CPE: five replicate wells; for Day 2 CPE: Day 2 post-infection; for Day 4 CPE: Day 4 post-infection.

The next data set relates to Vero E6 cells. The data set is described as follows: Cytotoxicity / cell growth observed in Vero E6 cells during the neutralization assay. Particulars: for Cell growth: 1.25 mg/mL, also seen in corresponding DMSO controls (1.25%), attributed to DMSO.
Data set [2] in a line: Solubility on dilution of DMSO stock in DMEM/F12. It counts as physicochemical. The protocol:
The Vero E6 cells were plated on 96-well plates the day before the assay and were allowed to grow to ˜60% confluence. All three drugs were reconstituted with DMSO to a concentration of 100 mg/mL. That was further diluted in DMEM/F12 to 5 mg/mL. […] A 1:2 serial dilution series was performed to examine final concentrations of 1.25, 0.625, 0.31, 0.156, 0.078, 0.039, and 0.02 mg/mL. DMSO controls were used to account for DMSO concentrations at 1.25, 0.625, 0.31, 0.156, 0.078, 0.039, and 0.02%. Dilutions were pre-incubated with virus for 60 minutes prior to addition to cells. This was to allow drug to interact with virus prior to virus infection. Additionally, drug and virus were added to Vero cells simultaneously. 45 minutes after virus addition, DMEM/F12+FBS was added to feed the cells. The assay was executed in five replicates for each condition. Test wells received approximately 100 TCID50/well of SARS-CoV-2. Growth of the Vero E6 cells was observed and monitored for cytopathic effects (CPE) associated with successful virus replication. All wells were examined on Day 2 and Day 4 post-infection.

The next data set relates to SARS-CoV-2 / COVID-19. It counts as in vivo. Particulars: 500 mg capsule, twice per day.
The test system of a further data set is COVID-19. The data set is described as follows: Subject presenting with COVID-19 symptoms taking TUDCA capsules (Example 3). It counts as in vivo. Particulars: 500 mg capsule, twice per day; after several days. The protocol:
A subject presenting with COVID-19 symptoms was instructed to administer one gelatin capsule of TUDCA (500 mg, powder in capsule), twice per day.

Setting [3] is: pre-incubation with virus for 60 minutes.
The mark [4] stands for this setting: simultaneous addition of drug and virus.

In the case of `C[C@H](CCC(=O)NCCS(=O)(=O)[O-])[C@H]1CC[C@H]2[C@@H]3[C@@H](O)C[C@@H]4C[C@H](O)CC[C@]4(C)[C@H]3CC[C@]12C.[Na+]` [Sodium TUDCA], in data set [1], the “Inhibition of SARS-CoV-2 infection of Vero cells” value is on record as “inhibit SARS-CoV-2 infection of Vero cells” and the “EC50 (inhibition of SARS-CoV-2 CPE)” value was 980 µg/mL. Further, the “Day 2 CPE” value in data set [1] (setting [3]) is reported as “no CPE”. In data set [1] (setting [4]), the “Day 2 CPE” value is on record as “no CPE” and the “Day 4 CPE” value is given as “no CPE”. Further, in the data set with Vero E6 cells, the Cell growth entry is given as “Slowed cell growth”.

In the case of `CC(CCC(=O)NCCS(=O)(=O)O)C1CCC2C3C(O)CC4CC(O)CCC4(C)C3CCC12C` (stereo not drawn) [TUDCA acid, tauroursodeoxycholic acid], in data set [1], the “Inhibition of SARS-CoV-2 infection of Vero cells” value was “inhibit SARS-CoV-2 infection of Vero cells” and the “EC50 (inhibition of SARS-CoV-2 CPE)” value is 980 µg/mL. In addition, the “Day 2 CPE” value in data set [1] (setting [3]) is “no CPE”. Moreover, in data set [1] (setting [4]), the “Day 2 CPE” value was “no CPE” and the “Day 4 CPE” value is on record as “no CPE”. For the same compound, in the data set on Vero E6 cells, the Cell growth result is listed as “Slowed cell growth”.

With `CC(CCC(=O)NCCS(=O)(=O)O)C1CCC2C3C(O)CC4CC(O)CCC4(C)C3CCC12C` (stereo not drawn) [TUDCA, tauroursodeoxycholic acid], the “Solubility in DMEM/F12” value in data set [2] (100 mg/mL DMSO stock diluted in DMEM/F12 to 5 mg/mL) is recorded as “came out of solution”; in data set [2] (next 1:2 dilution after 5 mg/mL), “soluble”. The “Health outcome of member who tested positive for SARS-CoV-2 with COVID-19 symptoms” value in the data set with SARS-CoV-2 / COVID-19 (oral, one member) is given as “health returned to normal”. Also, the “COVID-19 symptoms in exposed members (prophylaxis)” value in the data set with SARS-CoV-2 / COVID-19 (twelve members, repeated exposure to COVID-19 patients over at least 3 months) is reported as “None of the other twelve members have presented with COVID-19 symptoms”. In addition, the “Health outcome of subject with COVID-19 symptoms” value with COVID-19 is given as “health returned to normal”. The Cytotoxicity in wells result with Vero E6 cells (1.25 and 0.625 mg/mL final concentrations) is reported as “Cytotoxicity was seen”.
